The text below walks through data of article PMC5594551, “Heterogeneous drug penetrance of veliparib and carboplatin measured in triple negative breast tumors” (Breast Cancer Research : BCR, 2017).

The test system of one data set is MDA-MB-231. Further details: method as in PMID 21633166, PMID 21707865. The settings on record: ref [23], [25]; cited from earlier work.
The nature of data set [1]: Veliparib spatial distribution by MALDI-MSI in TNBC xenograft tumor and muscle sections. It is filed as in vivo, beige SCID mice. The method, then: Thirty-nine mice were euthanized approximately 3 h after the last dose of veliparib and 24 h after the last dose of carboplatin; two mice used in the DCE-MRI pilot were euthanized 1.5 h after single-dose administration of veliparib and carboplatin (Fig. 1). Bilateral xenograft tumors and liver and muscle (quadriceps) tissues were harvested. Tissues were cut into three pieces and either embedded in optimum cutting temperature (OCT) formulation or were directly snap frozen in liquid-nitrogen-cooled isopentane and stored at − 80 °C until analysis. […] A separate fresh-frozen portion of each tissue per animal was ground for quantification of veliparib and carboplatin by LC-MS. […]
Heterogeneity of drug distribution of veliparib in the tissues evaluated by MALDI-MSI was assessed by comparing the relative standard deviation in the whole tissue of muscle and tumor cells, and by comparing the mean pixel intensity of each immunohistochemically (IHC)-defined region of interest capturing the whole tumor region, and regions of cellularity/necrosis using one-way ANOVA. […]
By spiking different concentrations of veliparib on placebo treated mouse TNBC xenograft tissues, a rough estimate of the detection range of veliparib was determined to be 100 fmol-100 pmol absolute drug amount, Figure S2 left) with saturation of the signal occurring above 1 nmol/ μL. […]

In the next data set the test system is PARP1. The settings on record: read-out: IC50 for PARP1 inhibition; ref [3], [31]; cited from earlier work.
Data set [2] can be described thus: Carboplatin one-compartment plasma PK model in mice. The data set is classed as in vivo, beige SCID mice. On the procedure:
The PK of carboplatin in mice was assessed using a one-compartment model with bolus intravenous injection.
e) Supplements of the PK-model development.

Data set [3] is described as follows: Carboplatin plasma PK in patients of phase 1 trial (three-compartment model). The data set is classed as in vivo. The method, then:
Carboplatin and platinum adducts were determined in a limited number of blood samples from a previously presented phase 1 clinical trial (NCT02358200). […] In the case of grade 3 or grade 4 toxicity, carboplatin and/or talazoparib doses were held until below grade 1 and resumed at a lower dose level. Blood samples were obtained from a limited number of patients during cycle 1 day 1 (prior to talazoparib dosing) and cycle 2 day 1 pre-dose and up to 24 h post dose, and PBMCs were derived at day 15 post dose, DNA was extracted as described in Additional file 1d and platinum adducts were quantified by ICP-MS (Additional file 1b).
A three-compartment model best described carboplatin in plasma and no variability between patients was observed (Additional file 1: Figure S12 and Table S2). In further analyses, we assumed that the carboplatin plasma PK profile in the other 16 patients was similar to that the first 3 patients: in these patients glomerular filtration rate (GFR) ranged from 60 to 151 mL/min and BSA values ranged from 1.58 to 2.0 m^2. […] [34].
Supplementary Table 2: PK patients estimates carboplatin and platinum adducts Structural model PK Estimat RS
Inter-individual variability on Platinum adduct formation (RPT) 317% proportional residual error plasma carboplatin 28% 26 […]
proportional residual error adduct formation 110% 6%
Platinum adduct formation:
CL=clearance, V=volume of distribution, KA= rate of absorption, RPT= ratio of carboplatin adduct formation, KPT= rate of carboplatin adduct formation, gBRCA = germline BRCA carrier […]
(also on this page, place not known: ( )adductsC−×× plasmaCRPT KPT=dt dCadducts)
(1 picture or pasted object on this page, not shown here)

Molecules are shown by their SMILES.

For the compound `C[C@]1(c2nc3c(C(N)=O)cccc3[nH]2)CCCN1` [veliparib], the Sensitivity in vitro entry with MDA-MB-231 is given as “sensitivity”. Besides, the entries for the “Ion intensity tumor/muscle (RSE %)” value in data set [1] (cellular tumors (ROI)) and in data set [1] (necrotic tumors (ROI)) were 1.01 (85%) and 1.63 (70%), respectively. Also, in the data set on PARP1, the IC50 (usually the concentration needed to halve the response being measured) is […].

As to `N.N.O=C([O-])C1(C(=O)[O-])CCC1.[Pt+2]` [carboplatin], the “Clearance and volume of distribution of carboplatin with co-dosed veliparib (drug-drug interaction)” value in data set [2] (0, 20 or 60 mg/kg veliparib doses) was “not significantly different”. Further, in data set [2] (beige SCID mice plasma), the “Half-life (t1/2)” value was 0.35 h. In data set [2] (mice plasma), the CL turned out to be 34.2 mL/h; the “Interindividual variability on CL” value stood at 6%; the Vd (in general, the apparent volume that relates the amount in the body to the concentration in plasma or blood) is recorded as 17.5 mL. Moreover, in data set [3], the “Half-life carboplatin in plasma” value is on record as 2.1 h, the Q came out at 0.324 L/h, the Q2 is 16.7 L/h and the V1 is on record as 0.935 L. This compound had a V2 in data set [3] of 52.8 L. This compound registered a CLday15 in data set [3] (day 15) of 5.33 L/h. Also, the CLday1 in data set [3] (single agent day 1) turned out to be 5.2 L/h.
